Experimental data: patent publication US10006920B2, “Diagnostic kit for diagnosis of abnormal protein aggregation- or misfolding-related diseases using dissociation of protein aggregates” (KOREA INSTITUTE OF SCIENCE AND TECHNOLOGY, priority 2013, dated 2018)
“And” between values parts separate entries of the source, which are not always exact repeats. Equal entries are not always repeated. “Also recorded” adds a separate entry of the source.

Tests used:
β-amyloid [1] = target: T1, β-amyloid (Homo sapiens, UniProt P05067); test: Plasma β-amyloid concentration before and after administration of EPPS, B−A by Equation 1; assay type: in vivo, APP/PS1 transgenic mice; parameters: tissue Jackson Laboratory (mice); host or cells: plasma / whole blood of female APP/PS1 transgenic mice; B-A (1 day) / B-A (5 days) / B-A (19 days) / B-A (33 days): unit not given here; conditions: for B-A (1 day): average of three measurements
Protocol: Female APP/PS1 transgenic mice were used as test animals. A total of 32 mice were used (eleven 5-6 month-olds and twenty-one 7.2-8.6 and 13 month-olds). 5-6-month-old mice were used since β-amyloid plaque accumulation in the brain begins from 5 months.
The transgenic APP/PS1 mouse model was B6C3-Tg(APPswe, PSEN1dE9)85Dbo/Mmjax purchased from the Jackson Laboratory (USA) and maintained and used for experiments under the guideline of the Animal Care and Use Committee.
EPPS was administered to each of the 32 mice at a dose of 1,000 mg/kg/day.
Blood was drawn from the of the retro-orbital venous plexus of the mouse using a microtube (Marienfeld, Germany) treated with 80 IU/mL heparin before and after the administration of EPPS. The blood drawing after the administration of EPPS was performed 1 day, 5 days, 19 days and 33 days after the administration of EPPS.
The blood was collected in an Eppendorf tube and centrifuged at 13,500 rpm and 4° C. for 5 minutes. Plasma separated from the cell fraction was collected in an Eppendorf tube for immediate use or for storage at −80° C. for later use.
β-Amyloid concentration in the plasma collected before and after the administration of EPPS was measured by detection units 1 and 2 of a kit. B−A was calculated by a calculation unit from the measured concentrations using [Equation 1].

[2] = test system: β-amyloid oligomers, profibrils, fibrils and plaque aggregates; test: SDS-PAGE analysis of dissociation of β-amyloid aggregates; assay type: biochemical
β-amyloid [3] = target: T1, β-amyloid; test: β-amyloid concentration in plasma and whole blood treated with EPPS (APP/PS1 transgenic mouse); parameters: tissue Jackson Laboratory (mice); host or cells: plasma / whole blood of female APP/PS1 transgenic mice; conditions: 9-month-old APP/PS1 mice
Protocol: 9-month-old female APP/PS1 transgenic mice were used as test animals.
The transgenic APP/PS1 mouse model was B6C3-Tg(APPswe,PSEN1dE9)85Dbo/Mmjax purchased from the Jackson Laboratory (USA) and bred and used for experiments under the guideline of the Animal Care and Use Committee.
Sample treatment and β-amyloid concentration measurement were conducted in the same manner as in Example 1.

β-amyloid [4] = target: T1, β-amyloid; test: β-amyloid monomer concentration in plasma and whole blood treated with EPPS (APP/PS1/Tau transgenic mouse); parameters: tissue Jackson Laboratory (mice); host or cells: plasma / whole blood of 5-month-old female APP/PS1/Tau transgenic mice, treated ex vivo with EPPS; conditions: 5-month-old APP/PS1/Tau mice
Text: 5-month-old female APP/PS1/Tau transgenic mice were used as test animals.
The transgenic APP/PS1/Tau mouse model was B6;129-Psen1tm1MpmTg(APPSwe,tauP301L)1Lfa/Mmjax purchased from the Jackson Laboratory (USA) and maintained and used for experiments under the guideline of the Animal Care and Use Committee.
Blood was collected in K2 EDTA-treated vacuum tube containing Roche Complete Mini (protease inhibitor) solution and centrifuged. Plasma separated from the cell fraction was collected in an Eppendorf tube and prepared into 0.1-mL samples, which were used immediately or stored at −80° C. for later use. Whole blood was collected in an Eppendorf tube by treating with EPPS and separating plasma from the cell fraction and prepared into 0.1-mL samples, which were used immediately for β-amyloid concentration measurement or stored at −80° C. for later use.
The plasma was treated with water (control group) or EPPS (EPPS group).
As for the EPPS group, 15 μL of the plasma was treated with 5 μL of 400 mM EPPS, so that the final EPPS concentration was 100 mM. As for the control group, 15 μL of plasma was treated with 5 μL of PBS, so that the concentration was the same as that of the EPPS group. […]
The whole blood was analyzed after treating with EPPS. […]
The β-amyloid concentration in each plasma was measured using detection units 1 and 2 and MB/MP was calculated by a calculation unit using [Equation 2].

[5] = test system: β-amyloid oligomers, profibrils, fibrils and plaques; test: Electron microscopic observation of β-amyloid aggregates; assay type: biochemical; conditions: electron microscopy
[6] = Aged (7.2 months or older) female APP/PS1 mice, one value per mouse, EPPS 1,000 mg/kg/day, plasma β-amyloid after minus before
[7] = EPPS-treated whole blood / EPPS-treated plasma (Equation 2)
[8] = control plasma / EPPS-treated plasma (Equation 3)

T1 sequence (P05067 672-713 limits assumed): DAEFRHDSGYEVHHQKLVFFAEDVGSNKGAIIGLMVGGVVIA

O=S(=O)(O)CCCN1CCN(CCO)CC1 [EPPS, 4-(2-Hydroxyethyl)-1-piperazinepropanesulfonic acid]
β-amyloid 42 concentration in plasma after administration (FIG. 3a) (β-amyloid [1]; 5-6-month-old (young) and 7.2-month-old (aged) mice, before vs 24 hours after): significant increase | β-amyloid 42 concentration in plasma, course over time (FIG. 3b) (β-amyloid [1]; 7.2-month-old (aged) mice, 1, 5, 19 and 33 days after administration): significant increase in β-amyloid 42 concentration followed by decrease | B−A value (sign) (β-amyloid [1]; 24 hours (1 day) after administration of EPPS, all the mice): positive (+) | B-A (5 days) (β-amyloid [1]; [6]): 93.531 and 163.986 and 51.584 and 76.049 and 170.979 and 86.122 and 108.916 and 311.820 and 134.965 and 170.656 and 207.692 and 55.115 and 209.711 and 88.441 and 105.420 and 130.096 and 118.007 and 70.105 and 185.315 and 66.259 and 214.549 | B-A (19 days) (β-amyloid [1]; [6]): 298.504 and 52.809 and 70.596 and 86.108 and 129.025 and 57.487 and 53.294 and 43.826 and 101.221 and 82.444 and 136.814 and 131.569 and 88.695 and 61.725 and 27.070 and 32.708 and 22.406 and 20.515 and 59.409 | B-A (33 days) (β-amyloid [1]; [6]): 114.33 and 23.509 and 148.154 and 21.599 and 71.410 and 4.797 and 24.240 and 11.079 and 42.621 and 31.969 and 60.179 and 39.237 and 23.448 and 33.902 and 41.596 and 59.545 and 31.762 and 51.292 and 78.101 | B-A (1 day) (β-amyloid [1]; [6]): 78.802 and 41.434 and 20.276 and 12.442 and 15.385 and 7.373 (2×) and 182.867 and 10.138 and 13.364 and 11.060 and 4.147 and 140.559 and 16.129 and 194.580 and 18.894 and 6.119 and 345.979 and 19.816 and 156.294 and 180.594 | B-A (1 day) (β-amyloid [1]; Young (5-6 months) female APP/PS1 mice, one value per mouse, EPPS 1,000 mg/kg/day, plasma β-amyloid after minus before): 52.151 and 22.674 and 98.547 and 20.430 and 191.398 and 124.731 and 108.065 and 102.326 and 89.535 and 94.186 and 146.802 | B−A value, course over time (β-amyloid [1]; since 19 days after the administration of EPPS): began to decrease | Dissociation of β-amyloid aggregates (bands of Aβ 40 and Aβ 42 monomers, 4.3-4.5 kD) [2]: has the activity of dissociating β-amyloid oligomers, profibrils, fibrils and plaque aggregates; also recorded: has the activity of dissociating β-amyloid dimer, oligomer, profibril, fibril and plaque aggregates | MB/MP (β-amyloid [3]; [7]): 0.79 | UP/MP (β-amyloid [3]; [8]): 0.99 | MP Aβ concentration (monomer concentration in plasma of the EPPS group) (β-amyloid [3]; plasma treated with EPPS, average of three measurements): 151.58 ± 24.03 | MB/MP (β-amyloid [4]; [7]): 0.61 | UP/MP (β-amyloid [4]; [8]): 0.92 | Dissociation of β-amyloid aggregates by electron microscopic observation [5]: no β-amyloid aggregates are observed; also recorded: confirms the activity of dissociating β-amyloid dimers, oligomers, profibrils, fibrils and plaques
